Measured values as given in the NIST ThermoML archive (doi:10.1016/j.jct.2015.08.014).

Assay: xn = mol fraction of the nth substance listed
Conditions: 323.15 K, 100 kPa, Liquid, Alternating current cell with electrodes

CCCC[N+]1(C)CCCC1.N#CN=C=[N-] [1-butyl-1-methylpyrrolidinium dicyanamide] + O=C1CCCO1
electrical conductivity [S/m]
Conditions	Frequency=0.001 MHz	Frequency=0.0015 MHz	Frequency=0.002 MHz	Frequency=0.0025 MHz	Frequency=0.003 MHz	Frequency=0.00347222 MHz	Frequency=0.004 MHz	Frequency=0.00446429 MHz	Frequency=0.005 MHz	Frequency=0.005454 MHz
x1 = 0.0463	–	2	2	2.01	2.01	2.01	2.01	2.01	2.01	2.01
x1 = 0.0987	3.06	3.07	3.07	3.07	3.08	3.08	3.08	3.08	3.08	3.08
x1 = 0.1449	3.56	3.56	3.56	3.56	3.56	3.57	3.57	3.57	3.57	3.57
x1 = 0.1859	3.83	3.84	3.84	3.85	3.85	3.85	3.85	3.85	3.85	3.85
x1 = 0.2493	3.89	3.89	3.89	3.89	3.89	3.89	3.89	3.89	3.89	3.89
x1 = 0.3029	3.86	3.87	3.87	3.87	3.87	3.87	3.87	3.87	3.87	3.88
x1 = 0.3845	3.732	3.73	3.74	3.74	3.74	3.74	3.74	3.74	3.74	3.74
x1 = 0.4985	3.46	3.46	3.46	3.46	3.46	3.46	3.46	3.46	3.46	3.46
x1 = 0.6954	2.99	2.99	2.99	2.99	2.99	2.99	2.99	2.99	2.99	2.99
x1 = 0.9013	2.626	2.628	2.63	2.63	2.631	2.632	2.632	2.632	2.633	–
x1 = 1	2.526	2.527	2.528	2.528	2.528	2.528	2.529	2.529	2.529	–
